Data taken from patent publication US20240287046A1, “COMPOUNDS AND RADIOLIGANDS FOR TARGETING NEUROTENSIN RECEPTOR AND USES THEREOF” (Full-Life Technologies HK Limited, priority 2022, published 2024).

Biological target: human NTSR-1 (Homo sapiens (Human), UniProt P30989)
Assay: radioligand competitive binding assay using ^177Lu labeled C-1 as reference radioligand
Details: Mean IC50 of C-1/Mean IC50 of the test compound
Procedure: The binding affinities of test compounds were determined by a radioligand competitive binding assay using ^177Lu labeled C-1 as the reference radioligand.
Briefly, 100 μL HT-29 cells expressing human NTSR-1 at a density of 1˜2×10^6 cells/mL were mixed with binding buffer (RPMI-1640 medium supplemented with 0.25% bovine serum albumin) in each well of the 96-well filter plate (Millipore). Then the cells in each well were incubated with ^177Lu—C-1 (0.55 μCi/well) and the test compound under 37° C. for 1 hr (n=3). After incubation, unbound ^177Lu—C-1 and the test compound in each well was removed by filtration using a Multiscreen vacuum manifold (Millipore) and the cells were further rinsed with the binding buffer for 5 times. The cells from each well were then collected and radioactivity of the cells in each well was individually measured by y counter (2480 WIZARD2, PerkinElmer). The best-fit IC50 value of test compounds (inhibitory concentration when 50% of the bound ^177Lu—C-1 on cells were displaced) were calculated by fitting the data with nonlinear regression using GraphPad Prism 8.0.1.

human NTSR-1, sequence (P30989 whole entry): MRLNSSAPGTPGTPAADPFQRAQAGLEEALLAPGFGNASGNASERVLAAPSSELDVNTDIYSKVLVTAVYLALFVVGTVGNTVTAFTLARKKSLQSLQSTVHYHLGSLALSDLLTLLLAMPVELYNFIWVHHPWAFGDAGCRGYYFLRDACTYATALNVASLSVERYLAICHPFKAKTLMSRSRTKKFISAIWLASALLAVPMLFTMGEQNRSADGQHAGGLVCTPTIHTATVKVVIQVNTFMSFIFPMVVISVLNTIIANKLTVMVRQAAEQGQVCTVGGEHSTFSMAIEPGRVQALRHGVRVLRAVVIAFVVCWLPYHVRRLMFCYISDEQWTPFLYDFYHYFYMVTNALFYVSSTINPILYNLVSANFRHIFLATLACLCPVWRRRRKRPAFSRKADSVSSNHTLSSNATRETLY

Row | Relative Binding Affinity | Compound
1 | 243.5 | COc1cccc(OC)c1-c1cc(C(=O)NC2(C(=O)O)C3CC4CC(C3)CC2C4)nn1-c1ccc(CCCCN(C)CCCN(C)C(=O)CN2CCN(CC(=O)O)CCN(CC(=O)O)CCN(CC(=O)O)CC2)cc1C(C)C (stereo not shown) [Compound I-9, 2,2′,2″-(10-(2-((3-((4-(4-(3-((2-carboxyadamantan-2-yl)carbamoyl)-5-(2,6-dimethoxyphenyl)-1H-pyrazol-1-yl)-3-isopropylphenyl)butyl)(methyl)amino)propyl)(methyl)amino)-2-oxoethyl)-1,4,7,10-tetraazacyclododecane-1,4,7-triyl)triacetic acid]
2 | 519.8 | COc1cccc(OC)c1-c1cc(C(=O)NC2(C(=O)O)C3CC4CC(C3)CC2C4)nn1-c1ccc(NCCCN(C)CCCNC(=O)COCCOCCNC(=O)CN2CCN(CC(=O)O)CCN(CC(=O)O)CCN(CC(=O)O)CC2)cc1C(C)C (stereo not shown) [Compound I-3, 2,2′,2″-(10-(19-((4-(3-((2-carboxyadamantan-2-yl)carbamoyl)-5-(2,6 dimethoxyphenyl)-1H-pyrazol-1-yl)-3-isopropylphenyl)amino)-16-methyl-2,11-dioxo-6,9-dioxa-3,12,16-triazanonadecyl)-1,4,7,10-tetraazacyclododecane-1,4,7-triyl)tracetic acid]
3 | 22.0 | COc1cccc(OC)c1-c1cc(C(=O)NC2(C(=O)O)C3CC4CC(C3)CC2C4)nn1-c1ccc(N(CCCN(C)C)C(C)=O)cc1C(C)C (stereo not shown) [Compound C-4, reference compound]
4 | 11.2 | COc1cccc(OC)c1-c1cc(C(=O)NC2(C(=O)O)C3CC4CC(C3)CC2C4)nn1-c1ccc(NC(=O)COCCOCCNC(=O)CN2CCN(CC(=O)O)CCN(CC(=O)O)CCN(CC(=O)O)CC2)cc1C(C)C (stereo not shown) [Compound I-12]
